In patent US20240287054A1, “COMPOUNDS THAT BIND NON-CANONICAL G-QUADRUPLEX STRUCTURES AND METHODS OF MAKING AND USING THE SAME” (The U.S.A., as Represented by the Secretary, Department of …, priority 2021, published 2024):
Where two headings read alike, the source gives them in different places.

Assays:
Type in all cases: binding, human
MYCN G4 DNA [1] = experiment: Surface plasmon resonance (SPR) with immobilized biotinylated MYCN G4 DNA; details: for positive binding in SPR (SNR>3): single concentration 100 μM compound
In short: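 Biotinylated MYCN G4 DNA, annealed at 95 °C, was captured on a streptavidin-coated CM5 chip; running buffer was 10 mM Tris pH 7.0, 100 mM KCl, 0.005% Tween 20, 5% DMSO. Compound series were injected at 25 μL/min (120 s association, 200 s dissociation), reference-subtracted, and KD was fitted with a Langmuir 1:1 model.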

MYCN G4 DNA [2] = experiment: Circular dichroism (CD) thermal melting assay of MYCN G4; details: for increase of Tm (ΔTm) of MYCN G4: 20 μM compound, 10 mM Tris pH 7.0, 5 mM KCl
Method: For thermal melt assay, MYCN oligonucleotides were prepared in a low KCl buffer (10 mM Tris, pH7.0, 5 mM KCl) at 5 μM concentration. To test the stabilization effect, G4 samples were incubated with and without 20 μM compound (final solution containing 5% DMSO). Then a total of 300 μL solution was added in a cuvette and heated from 20° C. to 95° C. in a CD spectrometer with an interval of 1° C. To calculate the melting temperature (Tm), the peak of CD spectrum at 263 nm was tracked, and […] vs temperature was plotted and fitted using a nonlinear sigmoidal dose-response model with a variable slope in GraphPad Prism 8 software. The shifting of melting temperature (ΔTm) was calculated using Tm (compound)−Tm (DMSO).
For CD melting assay, MYCN oligonucleotides were prepared in KCl buffer (10 mM sodium phosphate, pH7.0, 5 mM KCl) at 5 μM concentration. To test the stabilization effect of the compounds, MYCN G4 DNA samples were mixed with/without the compound (final solution containing 5% DMSO) at designed concentration. Then a total of 300 μL solution was added in a cuvette and heated from 20 to 80° C. in a CD spectrometer with an interval of 1° C. To calculate the melting temperature (Tm), the peak of CD spectrum at 263 nm was tracked, and […] vs temperature was plotted and fitted using a nonlinear sigmoidal dose-response model with a variable slope in GraphPad Prism 8 software.

[3] = biological target: MYCN G4 DNA (2-AP at A11); experiment: 2-Aminopurine (2-AP) fluorescence titration, A11-labeled MYCN G4; details: 2-AP at A11 of MYCN G4
Method: 2-Aminopurine (2-AP) fluorescence titration. Fluorescence titrations based on 2-aminopurine labeling were performed using the protocol reported previously. Briefly, MYCN G4 oligonucleotide with a 2-AP substitution at either A11 or A18 position was annealed by heating the sample to 95° C. for 5 min and cooling down to RT slowly. The oligonucleotide with folded structure was diluted to 10 μM in Tris buffer (10 mM Tris, pH7.0, 100 mM KCl, 0.005% Tween 20) and prepared in a black 96-well plate (Costar) in triplicate as designed. Small molecules were diluted in DMSO to obtain a series of solutions with concentrations ranging from 0.1 to 5 mM, and then diluted by 20 times added into the plate (5% DMSO final concentration). The final concentration of 2-AP DNA was 1 μM in the well plate. To obtain the background fluorescence, small molecule solutions without DNA were also prepared in the same plate. After incubation for 30 min at RT, the plate was briefly centrifuged and scanned in Synergy Mx microplate reader (BioTek) with Ex 310 nm/Em 365 nm. Fluorescence signals were calculated by averaging the intensities in triplicate wells after subtracting the references. Finally, the binding signals were normalized and the KD value was determined by fitting the curve using a nonlinear sigmoidal dose-response model with a variable slope in GraphPad Prism 8.3.1 software.

[4] = MYCN G4, Langmuir 1:1 model, read-out: SPR KD

SMILES | Kd (MYCN G4 DNA [1]; MYCN hairpin G4, SPR titration, read-out: KD by SPR) [nM] | ΔTm of MYCN G4 (MYCN G4 DNA [2]; 10 mM sodium phosphate pH 7.0, 5 mM KCl, 5 μM DNA) [°C] | Kd (MYCN G4 DNA [1]; [4]) [nM] | positive binding in SPR (SNR>3) (MYCN G4 DNA [1]) | increase of Tm (ΔTm) of MYCN G4 (MYCN G4 DNA [2]) [°C] | ΔTm of MYCN G4 at 40 μM (MYCN G4 DNA [2]; 40 μM MY-1, versus 20 μM) | Kd [3] [nM] | A11 2AP KD [3]
COc1ccc(-c2noc(-c3ccc(NCCCNc4c5ccc(Cl)cc5nc5ccc(OC)cc45)nn3)n2)cc1 [B33, N^1-(6-chloro-2-methoxyacridin-9-yl)-N^3-(6-(3-(4-methoxyphenyl)-1,2,4-oxadiazol-5-yl)pyridazin-3-yl)propane-1,3-diamine] | 70 ± 13 | 6.4 |  |  |  |  |  | 
CCCN1CCN(c2nnc(-n3cccc3CNCCCN3CCCCCC3)s2)CC1 [Compound 1] |  |  | 11700 ± 2600 | hits | 4.7±0.7 |  |  | 
COc1ccc(-c2noc(-c3ccc(NCCCN4CCCC4)nn3)n2)cc1 [MY-1, 6-(3-(4-methoxyphenyl)-1,2,4-oxadiazol-5-yl)-N-(3-(pyrrolidin-1-yl)propyl)pyridazin-3-amine] |  |  | 3600 ± 2400 | hits | 3.7±0.5 | not significantly increased | 3200 ± 600 | 
COc1ccc(-c2noc(-c3ccc(NCCCN4CCCCCC4)nn3)n2)cc1 [MY-8, N-(3-(azepan-1-yl)propyl)-6-(3-(4-methoxyphenyl)-1,2,4-oxadiazol-5-yl)pyridazin-3-amine] |  |  | 1500 ± 300 |  |  |  | 600 ± 200 | sub-micromolar binders
